Measured values reported in patent publication US5391540A, “Substituted pyridine compounds” (Rohm and Haas Company, priority 1993, dated 1995).

Experiments:
Format in all cases: in vivo
Morningglory = experiment: Pre-emergent herbicidal activity (Table A); conditions: Ipomoea, pre-emergence, Mogl, 11.2 kg/ha, 10-14 days, read-out: herbicidal rating (% inhibition)
Summary of the method: (§1)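 Percent inhibition per species, scored on a rating scale, after pre-emergent soil incorporation: test compound in acetone or water carrier mixed into cover soil, layered over seeded topsoil or vegetative propagules.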

Cocklebur = experiment: Pre-emergent herbicidal activity (Table A); conditions: Xanthium strumarium, pre-emergence, Cobu, 11.2 kg/ha, 10-14 days, read-out: herbicidal rating (% inhibition)
Summary of the method: as §1

Barnyardgrass = experiment: Pre-emergent herbicidal activity (Table A); conditions: Echinochloa crus-galli, pre-emergence, Bygr, 11.2 kg/ha, 10-14 days, read-out: herbicidal rating (% inhibition)
Summary of the method: as §1

Downy Brome = experiment: Pre-emergent herbicidal activity (Table A); conditions: Bromus tectorum, pre-emergence, Dobr, 11.2 kg/ha, 10-14 days, read-out: herbicidal rating (% inhibition)
Summary of the method: as §1

Dobr = experiment: plant injury after spraying emerged plants (Table D)
Source text: Topsoil (silt loam) is sieved through a screen having 1.27 cm openings. In some of the tests the soil was mixed with fertilizer (1225 g/cu. m of 12/5/9 containing isobutylidene diurea), while in other tests the fertilizer was omitted. This mixture is steam sterilized and then placed in aluminum pans 6.985 cm deep having ten holes in the bottom each 0.635 cm in diameter. The soil mixture is compacted to a depth of 1.27 cm. from the top of the pan. A predetermined number of seeds of each of several dicotyledonous and monocotyledonous annual plant species and/or vegetative propagules for the perennial plant species are placed on the soil and pressed into the soil surface. The seeds and/or vegetative propagules are covered with 1.27 cm of a mixture of 50% topsoil and 50% of a mixture of Canadian sphagnum peat moss, vermiculite and a wetting agent. The pans are then placed on a capillary mat on a greenhouse bench and subirrigated as needed. After the plants reach the desired stage (9 to 14 days, 1 to 3 true leaf stage), each pan (except the control pans) is removed to a spraying chamber and sprayed by means of an atomizer, operating at a spray pressure of 170.3 kPa ([…]) at the application rates noted in Table D. In the spray solution is an amount of an emulsifying agent mixture (35% butylamine salt of dodecylbenzenesulfonic acid and 65% tall oil condensed with ethylene oxide in the ratio of 11 mols of ethylene oxide/mol of tall oil) to give a spray solution or suspension. The spray solution or suspension contains a sufficient amount of the candidate chemical in order to give application rates of the active ingredient corresponding to those shown in Table D below while applying a total amount of solution or suspension equivalent to 1870 L/Ha (200 gallons/acre). The pans are returned to the greenhouse and watered as before and the injury to the plants as compared to the control pans is observed at approximately 10-14 days (usually 11 days).
(§2) In the following Table D the legends used to identify the plant species are the same as those used in the preceding Table B.

Grft = experiment: as above; design: scale not given here
Source text: (§3) Topsoil (silt loam) is sieved through a screen having 1.27 cm openings. […] This mixture is steam sterilized and then placed in aluminum pans 6.985 cm deep having ten holes in the bottom each 0.635 cm in diameter. The soil mixture is compacted to a depth of 1.27 cm. from the top of the pan. A predetermined number of seeds of each of several dicotyledonous and monocotyledonous annual plant species and/or vegetative propagules for the perennial plant species are placed on the soil and pressed into the soil surface. The seeds and/or vegetative propagules are covered with 1.27 cm of a mixture of 50% topsoil and 50% of a mixture of Canadian sphagnum peat moss, vermiculite and a wetting agent. The pans are then placed on a capillary mat on a greenhouse bench and subirrigated as needed.
as §2

Grso = experiment: as above; design: scale not given here
Source text: as §3, §2

Rice = experiment: as above; design: scale not given here
Source text: as §3, §2

Cobu = experiment: as above; design: scale not given here
Source text: as §3, §2

Lacg = experiment: as above; design: scale not given here
Source text: as §3, §2

Mogl = experiment: as above; design: scale not given here
Source text: as §3, §2

Corn = experiment: as above; design: scale not given here
Source text: as §3, §2

Bygr = experiment: as above; design: scale not given here
Source text: as §3, §2

Sobe = experiment: as above; design: scale not given here
Source text: as §3, §2

Prmi = experiment: as above; design: scale not given here
Source text: as §3, §2

Whez = experiment: as above; design: scale not given here
Source text: as §3, §2

## COC(=O)c1c(OC)nc(C(F)(F)F)c(C2=NCCCS2)c1CC(C)C [Compound 98, 3-pyridinecarboxylic acid, 5-(5,6-dihydro-4H-1,3-thiazin-2-yl)-2-methoxy-4-(2-methylpropyl)-6-(trifluoromethyl)-, methyl ester]
Morningglory
  inhibition at 11200 g/ha: 75 to 100%
Cocklebur
  inhibition at 11200 g/ha: 0 to 24%
Barnyardgrass
  inhibition at 11200 g/ha: 75 to 100%
Downy Brome
  inhibition at 11200 g/ha: 75 to 100%
Dobr; 0.0701 kg/ha
  plant injury rating, Dobr: 0
Dobr; 0.2803 kg/ha
  plant injury rating, Dobr: 0
Dobr; 1.1210 kg/ha
  plant injury rating, Dobr: 0
Dobr; 5.6050 kg/ha
  plant injury rating, Dobr: 0
Grft; 0.0701 kg/ha
  plant injury rating, Grft: 0
Grft; 0.2803 kg/ha
  plant injury rating, Grft: 0
Grft; 1.1210 kg/ha
  plant injury rating, Grft: 0
Grft; 5.6050 kg/ha
  plant injury rating, Grft: 1
Grso; 0.0701 kg/ha
  plant injury rating, Grso: 0
Grso; 0.2803 kg/ha
  plant injury rating, Grso: 0
Grso; 1.1210 kg/ha
  plant injury rating, Grso: 0
Grso; 5.6050 kg/ha
  plant injury rating, Grso: 1
Rice; 0.0701 kg/ha
  plant injury rating, Rice: 0
Rice; 0.2803 kg/ha
  plant injury rating, Rice: 0
Rice; 1.1210 kg/ha
  plant injury rating, Rice: 0
Rice; 5.6050 kg/ha
  plant injury rating, Rice: 0
Cobu; 0.0701 kg/ha
  plant injury rating, Cobu: 0
Cobu; 0.2803 kg/ha
  plant injury rating, Cobu: 1
Cobu; 1.1210 kg/ha
  plant injury rating, Cobu: 1
Cobu; 5.6050 kg/ha
  plant injury rating, Cobu: 2
Lacg; 0.0701 kg/ha
  plant injury rating, Lacg: 0
Lacg; 0.2803 kg/ha
  plant injury rating, Lacg: 2
Lacg; 1.1210 kg/ha
  plant injury rating, Lacg: 3
Lacg; 5.6050 kg/ha
  plant injury rating, Lacg: 3
Mogl; 0.0701 kg/ha
  plant injury rating, Mogl: 0
Mogl; 0.2803 kg/ha
  plant injury rating, Mogl: 0
Mogl; 1.1210 kg/ha
  plant injury rating, Mogl: 1
Mogl; 5.6050 kg/ha
  plant injury rating, Mogl: 2
Corn; 0.0701 kg/ha
  plant injury rating, Corn: 0
Corn; 0.2803 kg/ha
  plant injury rating, Corn: 0
Corn; 1.1210 kg/ha
  plant injury rating, Corn: 0
Corn; 5.6050 kg/ha
  plant injury rating, Corn: 2
Bygr; 0.0701 kg/ha
  plant injury rating, Bygr: 0
Bygr; 0.2803 kg/ha
  plant injury rating, Bygr: 0
Bygr; 1.1210 kg/ha
  plant injury rating, Bygr: 0
Bygr; 5.6050 kg/ha
  plant injury rating, Bygr: 0
Sobe; 0.0701 kg/ha
  plant injury rating, Sobe: 0
Sobe; 0.2803 kg/ha
  plant injury rating, Sobe: 0
Sobe; 1.1210 kg/ha
  plant injury rating, Sobe: 0
Sobe; 5.6050 kg/ha
  plant injury rating, Sobe: 2
Prmi; 0.0701 kg/ha
  plant injury rating, Prmi: 0
Prmi; 0.2803 kg/ha
  plant injury rating, Prmi: 1
Prmi; 5.6050 kg/ha
  plant injury rating, Prmi: 2
Whez; 0.0701 kg/ha
  plant injury rating, Whez: 0
Whez; 0.2803 kg/ha
  plant injury rating, Whez: 0
Whez; 1.1210 kg/ha
  plant injury rating, Whez: 0
Whez; 5.6050 kg/ha
  plant injury rating, Whez: 0

## COC(=O)c1c(OC)nc(C(F)(F)F)c(-c2nnc(C)o2)c1CC(C)C [Compound 103, 3-pyridinecarboxylic acid, 2-methoxy-5-(5-methy1-1,3,4-oxadiazo1-2-yl)-4-(2-methylpropyl)-6-(trifluoromethyl)-, methyl ester]
Morningglory
  inhibition at 11200 g/ha: 75 to 100%
Cocklebur
  inhibition at 11200 g/ha: 0 to 24%
Barnyardgrass
  inhibition at 11200 g/ha: 75 to 100%
Downy Brome
  inhibition at 11200 g/ha: 50 to 74%
Dobr; 0.0701 kg/ha
  plant injury rating, Dobr: 0
Dobr; 0.2803 kg/ha
  plant injury rating, Dobr: 0
Dobr; 1.1219 kg/ha
  plant injury rating, Dobr: 0
Dobr; 5.6050 kg/ha
  plant injury rating, Dobr: 0
Grft; 0.0701 kg/ha
  plant injury rating, Grft: 0
Grft; 0.2803 kg/ha
  plant injury rating, Grft: 0
Grft; 1.1219 kg/ha
  plant injury rating, Grft: 0
Grft; 5.6050 kg/ha
  plant injury rating, Grft: 0
Grso; 0.0701 kg/ha
  plant injury rating, Grso: 0
Grso; 0.2803 kg/ha
  plant injury rating, Grso: 0
Grso; 1.1219 kg/ha
  plant injury rating, Grso: 0
Grso; 5.6050 kg/ha
  plant injury rating, Grso: 2
Rice; 0.0701 kg/ha
  plant injury rating, Rice: 0
Rice; 0.2803 kg/ha
  plant injury rating, Rice: 0
Rice; 1.1219 kg/ha
  plant injury rating, Rice: 0
Rice; 5.6050 kg/ha
  plant injury rating, Rice: 0
Cobu; 0.0701 kg/ha
  plant injury rating, Cobu: 0
Cobu; 0.2803 kg/ha
  plant injury rating, Cobu: 0
Cobu; 1.1219 kg/ha
  plant injury rating, Cobu: 0
Cobu; 5.6050 kg/ha
  plant injury rating, Cobu: 0
Lacg; 0.0701 kg/ha
  plant injury rating, Lacg: 0
Lacg; 0.2803 kg/ha
  plant injury rating, Lacg: 0
Lacg; 1.1219 kg/ha
  plant injury rating, Lacg: 0
Lacg; 5.6050 kg/ha
  plant injury rating, Lacg: 2
Mogl; 0.0701 kg/ha
  plant injury rating, Mogl: 0
Mogl; 0.2803 kg/ha
  plant injury rating, Mogl: 1
Mogl; 1.1219 kg/ha
  plant injury rating, Mogl: 1
Mogl; 5.6050 kg/ha
  plant injury rating, Mogl: 2
Corn; 0.0701 kg/ha
  plant injury rating, Corn: 0
Corn; 0.2803 kg/ha
  plant injury rating, Corn: 0
Corn; 1.1219 kg/ha
  plant injury rating, Corn: 3
Corn; 5.6050 kg/ha
  plant injury rating, Corn: 3
Bygr; 0.0701 kg/ha
  plant injury rating, Bygr: 0
Bygr; 0.2803 kg/ha
  plant injury rating, Bygr: 0
Bygr; 1.1219 kg/ha
  plant injury rating, Bygr: 0
Bygr; 5.6050 kg/ha
  plant injury rating, Bygr: 0
Sobe; 0.0701 kg/ha
  plant injury rating, Sobe: 0
Sobe; 0.2803 kg/ha
  plant injury rating, Sobe: 0
Sobe; 1.1219 kg/ha
  plant injury rating, Sobe: 0
Sobe; 5.6050 kg/ha
  plant injury rating, Sobe: 2
Prmi; 0.0701 kg/ha
  plant injury rating, Prmi: 0
Prmi; 0.2803 kg/ha
  plant injury rating, Prmi: 0
Prmi; 1.1219 kg/ha
  plant injury rating, Prmi: 0
Prmi; 5.6050 kg/ha
  plant injury rating, Prmi: 0
Whez; 0.0701 kg/ha
  plant injury rating, Whez: 0
Whez; 0.2803 kg/ha
  plant injury rating, Whez: 0
Whez; 1.1219 kg/ha
  plant injury rating, Whez: 0
Whez; 5.6050 kg/ha
  plant injury rating, Whez: 0

## COC(=O)c1c(OC)nc(C(F)(F)F)c(C(=O)Cl)c1CC1CC1 [Compound 113, 3-pyridinecarboxylic acid, 5-(chlorocarbonyl)-4-(cyclopropylmethyl)-2-methoxy-6-(trifluoromethyl)-, methyl ester]
Morningglory
  inhibition at 11200 g/ha: 25 to 49%
Cocklebur
  inhibition at 11200 g/ha: 0 to 24%
Barnyardgrass
  inhibition at 11200 g/ha: 75 to 100%
Downy Brome
  inhibition at 11200 g/ha: 75 to 100%
Dobr; 0.2803 kg/ha
  plant injury rating, Dobr: 0
Dobr; 1.1210 kg/ha
  plant injury rating, Dobr: 0
Dobr; 5.6050 kg/ha
  plant injury rating, Dobr: 0
Grft; 0.2803 kg/ha
  plant injury rating, Grft: 0
Grft; 1.1210 kg/ha
  plant injury rating, Grft: 0
Grft; 5.6050 kg/ha
  plant injury rating, Grft: 0
Grso; 0.2803 kg/ha
  plant injury rating, Grso: 0
Grso; 1.1210 kg/ha
  plant injury rating, Grso: 0
Grso; 5.6050 kg/ha
  plant injury rating, Grso: 0
Rice; 0.2803 kg/ha
  plant injury rating, Rice: 0
Rice; 1.1210 kg/ha
  plant injury rating, Rice: 0
Rice; 5.6050 kg/ha
  plant injury rating, Rice: 0
Cobu; 0.2803 kg/ha
  plant injury rating, Cobu: 0
Cobu; 1.1210 kg/ha
  plant injury rating, Cobu: 0
Cobu; 5.6050 kg/ha
  plant injury rating, Cobu: 0
Lacg; 0.2803 kg/ha
  plant injury rating, Lacg: 0
Lacg; 1.1210 kg/ha
  plant injury rating, Lacg: 0
Lacg; 5.6050 kg/ha
  plant injury rating, Lacg: 2
Mogl; 0.2803 kg/ha
  plant injury rating, Mogl: 0
Mogl; 1.1210 kg/ha
  plant injury rating, Mogl: 0
Mogl; 5.6050 kg/ha
  plant injury rating, Mogl: 1
Corn; 0.2803 kg/ha
  plant injury rating, Corn: 0
Corn; 1.1210 kg/ha
  plant injury rating, Corn: 0
Corn; 5.6050 kg/ha
  plant injury rating, Corn: 0
Bygr; 0.2803 kg/ha
  plant injury rating, Bygr: 0
Bygr; 1.1210 kg/ha
  plant injury rating, Bygr: 0
Bygr; 5.6050 kg/ha
  plant injury rating, Bygr: 0
Sobe; 0.2803 kg/ha
  plant injury rating, Sobe: 0
Sobe; 1.1210 kg/ha
  plant injury rating, Sobe: 0
Sobe; 5.6050 kg/ha
  plant injury rating, Sobe: 1
Prmi; 0.2803 kg/ha
  plant injury rating, Prmi: 0
Prmi; 1.1210 kg/ha
  plant injury rating, Prmi: 0
Prmi; 5.6050 kg/ha
  plant injury rating, Prmi: 0
Whez; 0.2803 kg/ha
  plant injury rating, Whez: 0
Whez; 1.1210 kg/ha
  plant injury rating, Whez: 0
Whez; 5.6050 kg/ha
  plant injury rating, Whez: 0
